# From patent publication US20230017786A1, “DEXTR[…] A DISEASE-MODIFYING TREATMENT FOR NEUROPSYCHIATRIC DISORDERS AND DISEASES” (priority 2020, published 2023)
# Several values for one entry are separate records, joined by “and”; a condition that tells them apart may be missing. Equal values may be shown once. Where a name gives a salt, the structure may show the parent alone.
# Assays:
# Assay type in all cases: cell-based
# [1] = target: T1, human NMDA receptor GluN1-GluN2B (Homo sapiens, UniProt Q05586+Q13224); experiment: cell-based
# T1 construct: expressed in transfected cells; host or cells: CHO
# T1 sequence (Q13224 27-1484, other chains not shown): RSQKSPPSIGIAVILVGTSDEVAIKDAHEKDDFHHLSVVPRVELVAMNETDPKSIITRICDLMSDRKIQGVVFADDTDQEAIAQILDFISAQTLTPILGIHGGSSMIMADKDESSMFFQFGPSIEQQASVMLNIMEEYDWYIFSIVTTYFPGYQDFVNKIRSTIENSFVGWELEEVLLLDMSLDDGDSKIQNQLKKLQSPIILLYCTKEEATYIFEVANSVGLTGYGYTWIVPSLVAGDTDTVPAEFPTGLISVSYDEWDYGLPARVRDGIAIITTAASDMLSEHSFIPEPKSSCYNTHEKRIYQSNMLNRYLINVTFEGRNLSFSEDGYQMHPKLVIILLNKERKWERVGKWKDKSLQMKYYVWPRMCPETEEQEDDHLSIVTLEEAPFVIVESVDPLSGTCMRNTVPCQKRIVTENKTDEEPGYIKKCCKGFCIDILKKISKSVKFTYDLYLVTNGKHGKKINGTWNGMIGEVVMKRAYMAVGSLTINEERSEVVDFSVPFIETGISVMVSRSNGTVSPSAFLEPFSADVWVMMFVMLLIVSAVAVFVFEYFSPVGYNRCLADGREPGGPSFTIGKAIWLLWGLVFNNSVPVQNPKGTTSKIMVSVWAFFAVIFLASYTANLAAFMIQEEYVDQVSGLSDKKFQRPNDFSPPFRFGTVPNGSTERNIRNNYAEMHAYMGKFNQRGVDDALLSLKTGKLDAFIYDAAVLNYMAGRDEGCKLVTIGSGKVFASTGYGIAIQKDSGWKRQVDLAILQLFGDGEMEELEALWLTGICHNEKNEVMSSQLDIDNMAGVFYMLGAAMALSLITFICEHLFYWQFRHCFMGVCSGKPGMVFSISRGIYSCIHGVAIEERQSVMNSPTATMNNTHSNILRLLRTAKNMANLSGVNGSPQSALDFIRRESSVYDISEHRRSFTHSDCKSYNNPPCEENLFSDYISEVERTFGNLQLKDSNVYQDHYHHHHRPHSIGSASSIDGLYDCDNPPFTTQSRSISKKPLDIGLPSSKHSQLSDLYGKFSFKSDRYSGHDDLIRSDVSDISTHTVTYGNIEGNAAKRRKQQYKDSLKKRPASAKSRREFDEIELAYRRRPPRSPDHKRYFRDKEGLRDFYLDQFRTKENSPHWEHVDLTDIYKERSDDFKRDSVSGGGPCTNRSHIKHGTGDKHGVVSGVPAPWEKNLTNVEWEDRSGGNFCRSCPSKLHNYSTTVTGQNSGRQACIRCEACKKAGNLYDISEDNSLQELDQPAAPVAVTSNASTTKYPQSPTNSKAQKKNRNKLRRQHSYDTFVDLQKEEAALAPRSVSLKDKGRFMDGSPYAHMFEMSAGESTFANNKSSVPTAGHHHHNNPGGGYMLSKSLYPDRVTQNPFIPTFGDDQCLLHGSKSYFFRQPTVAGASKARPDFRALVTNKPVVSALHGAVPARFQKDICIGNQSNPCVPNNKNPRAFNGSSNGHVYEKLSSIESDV
# Method: (§1) FLIPR determination of intracellular calcium level was used as a read-out for NMDAR activation.
# (§2) 400× compound plate was stored at −20° C. until FLIPR experimental day.
# (§3) 4× compound plate was generated from 400× compound plate by addition of up to 30 μl/well of compound buffer on FLIPR experimental day.
# (§4) A FLIPR system was used to monitor intracellular calcium level in NMDAR cell lines, pre-loaded for 1 hour with Fluo-4, and then washed with assay buffer.
# (§5) Y=Bottom+(Top−Bottom)/(1+10^((LogEC50−Log[A])*HillSlope))
# [2] = target: T2, human NMDA receptor GluN1-GluN2A (Homo sapiens, UniProt Q05586+Q12879); experiment: FLIPR calcium assay, test item effect on L-glutamate CRC, GluN1-GluN2A-CHO
# T2 construct: expressed in transfected cells; host or cells: CHO
# Method: as §1, §2, §3, §4, §5
# [3] = target: T3, human NMDA receptor GluN1-GluN2C (Homo sapiens, UniProt Q05586+Q14957); experiment: FLIPR calcium assay, test item effect on L-glutamate CRC, GluN1-GluN2C-CHO
# T3 construct: expressed in transfected cells; host or cells: CHO
# T3 sequence (Q14957 20-1233, other chains not shown): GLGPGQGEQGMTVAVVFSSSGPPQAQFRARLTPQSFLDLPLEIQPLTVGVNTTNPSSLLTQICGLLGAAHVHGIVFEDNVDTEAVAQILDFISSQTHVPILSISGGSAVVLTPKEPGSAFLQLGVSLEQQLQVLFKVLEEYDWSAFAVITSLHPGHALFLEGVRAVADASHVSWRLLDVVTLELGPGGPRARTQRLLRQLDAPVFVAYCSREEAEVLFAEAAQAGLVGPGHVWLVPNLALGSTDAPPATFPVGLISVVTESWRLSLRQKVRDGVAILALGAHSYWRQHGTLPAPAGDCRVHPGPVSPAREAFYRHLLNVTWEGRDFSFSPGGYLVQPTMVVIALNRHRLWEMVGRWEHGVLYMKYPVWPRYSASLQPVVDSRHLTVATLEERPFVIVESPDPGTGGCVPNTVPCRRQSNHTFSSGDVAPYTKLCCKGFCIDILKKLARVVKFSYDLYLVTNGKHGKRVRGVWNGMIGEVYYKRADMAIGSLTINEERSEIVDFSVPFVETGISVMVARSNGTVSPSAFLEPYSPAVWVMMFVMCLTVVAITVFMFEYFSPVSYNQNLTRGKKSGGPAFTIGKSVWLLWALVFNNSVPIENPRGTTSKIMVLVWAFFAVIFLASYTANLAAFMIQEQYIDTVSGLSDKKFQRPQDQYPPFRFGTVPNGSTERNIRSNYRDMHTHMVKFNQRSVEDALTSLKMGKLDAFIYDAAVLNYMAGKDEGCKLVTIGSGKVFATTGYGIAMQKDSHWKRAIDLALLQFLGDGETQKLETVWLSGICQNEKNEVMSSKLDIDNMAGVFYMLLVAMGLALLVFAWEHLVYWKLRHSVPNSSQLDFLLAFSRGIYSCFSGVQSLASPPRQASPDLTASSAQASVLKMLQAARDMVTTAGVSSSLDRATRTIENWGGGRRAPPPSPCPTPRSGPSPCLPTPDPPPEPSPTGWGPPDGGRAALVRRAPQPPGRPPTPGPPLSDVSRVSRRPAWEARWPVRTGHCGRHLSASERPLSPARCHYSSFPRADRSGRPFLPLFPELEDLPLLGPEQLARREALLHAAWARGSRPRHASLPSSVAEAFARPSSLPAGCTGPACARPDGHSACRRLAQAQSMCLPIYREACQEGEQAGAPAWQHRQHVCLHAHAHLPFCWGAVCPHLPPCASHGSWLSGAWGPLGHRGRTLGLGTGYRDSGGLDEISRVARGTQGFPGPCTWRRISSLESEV
# Method: as §1, §2, §3, §4, §5
# [4] = test system: diheteromeric human recombinant NMDAR containing GluN1 plus GluN2A, GluN2B, GluN2C or GluN2D; experiment: FLIPR calcium assay, statements for all four NMDAR subtypes together; conditions: 6 test item concentrations
# Source text: An operational equation for allosteric modulators (Leach K, Sexton P M and Christopoulos A, Allosteric GPCR modulators: taking advantage of permissive receptor pharmacology, Trends Pharmacol. Sci. 28: 382-389, 2007; Kenakin T P, Overview of receptor interaction of agonists and antagonists, Curr. Protoc. Pharmacol. Chapter 4: Unit 4.1, 2008, Kenakin T P, Biased signalling and allosteric machines: new vistas and challenges for drug discovery, Br. J. Pharmacol. 165: 1659-1669, 2012) was created in Prism 8 (GraphPad) software to estimate KB and a parameters for every test item, with the assumption that, as a pore blocker, every test item would be able to produce a compete blockade of agonist response, at sufficiently high concentration: […]
# [5] = target: T4, human NMDA receptor GluN1-GluN2D (Homo sapiens, UniProt O15399+Q05586); experiment: FLIPR calcium assay, test item effect on L-glutamate CRC, GluN1-GluN2D-CHO
# T4 construct: expressed in transfected cells; host or cells: CHO
# T4 sequence (O15399 28-1336, other chains not shown): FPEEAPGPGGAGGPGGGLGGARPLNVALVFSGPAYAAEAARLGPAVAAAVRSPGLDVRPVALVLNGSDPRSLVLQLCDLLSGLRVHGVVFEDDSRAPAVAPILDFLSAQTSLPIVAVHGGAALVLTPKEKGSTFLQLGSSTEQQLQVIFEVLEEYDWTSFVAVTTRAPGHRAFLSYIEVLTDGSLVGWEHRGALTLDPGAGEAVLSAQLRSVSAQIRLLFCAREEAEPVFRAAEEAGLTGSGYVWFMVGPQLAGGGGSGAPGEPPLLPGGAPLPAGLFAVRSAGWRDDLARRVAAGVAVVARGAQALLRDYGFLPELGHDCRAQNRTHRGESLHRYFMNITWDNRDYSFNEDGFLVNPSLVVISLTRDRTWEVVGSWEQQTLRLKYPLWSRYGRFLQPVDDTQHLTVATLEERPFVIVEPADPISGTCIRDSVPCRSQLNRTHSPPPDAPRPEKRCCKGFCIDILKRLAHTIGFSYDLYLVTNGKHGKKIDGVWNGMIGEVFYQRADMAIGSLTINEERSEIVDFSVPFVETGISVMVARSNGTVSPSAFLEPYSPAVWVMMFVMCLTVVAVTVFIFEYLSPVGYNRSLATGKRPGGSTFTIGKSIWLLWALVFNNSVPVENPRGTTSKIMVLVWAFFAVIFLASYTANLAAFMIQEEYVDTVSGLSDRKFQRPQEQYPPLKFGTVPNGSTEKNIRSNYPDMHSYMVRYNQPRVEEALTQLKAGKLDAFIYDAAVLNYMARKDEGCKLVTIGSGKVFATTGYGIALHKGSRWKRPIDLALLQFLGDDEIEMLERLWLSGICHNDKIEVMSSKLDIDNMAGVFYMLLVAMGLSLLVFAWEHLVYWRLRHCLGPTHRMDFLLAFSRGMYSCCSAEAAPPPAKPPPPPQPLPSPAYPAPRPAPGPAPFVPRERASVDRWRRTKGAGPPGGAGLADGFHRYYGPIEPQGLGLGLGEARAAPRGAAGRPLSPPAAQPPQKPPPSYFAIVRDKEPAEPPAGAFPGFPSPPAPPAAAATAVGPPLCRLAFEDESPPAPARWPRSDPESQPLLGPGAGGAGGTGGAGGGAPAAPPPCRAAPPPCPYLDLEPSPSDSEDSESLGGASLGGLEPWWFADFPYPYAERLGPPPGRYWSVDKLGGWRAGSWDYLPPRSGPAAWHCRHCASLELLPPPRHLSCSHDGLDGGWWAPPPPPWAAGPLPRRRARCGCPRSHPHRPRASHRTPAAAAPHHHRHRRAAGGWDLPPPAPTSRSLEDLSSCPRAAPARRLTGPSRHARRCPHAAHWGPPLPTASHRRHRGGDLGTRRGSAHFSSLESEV
# Method: as §1, §2, §3, §4, §5
# [6] = operational analysis for allosteric modulators
smiles,measurement,setting,value
"CC12CC3CC(C)(C1)CC(N)(C3)C2 [Memantine, memantine hydrochloride]","α, estimated cooperativity term",[1],0.094
same,L-glutamate CRC HillSlope,[1]; hydrochloride,2.1 and 1.5 and 1.1 and 1.7 and 1.4
same,"α, estimated cooperativity term",[2]; [6],0.15
same,L-glutamate CRC Bottom,[2]; with test item 49 nM,0.84
same,L-glutamate CRC HillSlope,[2]; with test item 49 nM,1.1
same,L-glutamate CRC LogEC50,[2]; with test item 49 nM,−6.6
same,L-glutamate CRC Top,[2]; with test item 49 nM,95
same,L-glutamate CRC Bottom,[2]; with test item 195 nM,1.3
same,L-glutamate CRC HillSlope,[2]; with test item 195 nM,1.2
same,L-glutamate CRC LogEC50,[2]; with test item 195 nM,−6.5
same,L-glutamate CRC Top,[2]; with test item 195 nM,92
same,L-glutamate CRC Bottom,[2]; with test item 781 nM,1.1
same,L-glutamate CRC HillSlope,[2]; with test item 781 nM,1.2
same,L-glutamate CRC LogEC50,[2]; with test item 781 nM,−6.3
same,L-glutamate CRC Top,[2]; with test item 781 nM,96
same,L-glutamate CRC Bottom,[2]; with test item 3.1 μM,−0.58
same,L-glutamate CRC HillSlope,[2]; with test item 3.1 μM,1.1
same,L-glutamate CRC LogEC50,[2]; with test item 3.1 μM,−6.4
same,L-glutamate CRC Top,[2]; with test item 3.1 μM,83
same,L-glutamate CRC Bottom,[2]; with test item 12.5 μM,−0.14
same,L-glutamate CRC HillSlope,[2]; with test item 12.5 μM,1.3
same,L-glutamate CRC LogEC50,[2]; with test item 12.5 μM,−6.3
same,L-glutamate CRC Top,[2]; with test item 12.5 μM,68
same,L-glutamate CRC Bottom,[2]; with test item 50 μM,1.5
same,L-glutamate CRC HillSlope,[2]; with test item 50 μM,1.6
same,L-glutamate CRC LogEC50,[2]; with test item 50 μM,−6.1
same,L-glutamate CRC Top,[2]; with test item 50 μM,36
same,"α, estimated cooperativity term",[3]; [6],0.10
same,L-glutamate CRC Bottom,[3]; with test item 49 nM,2.2
same,L-glutamate CRC HillSlope,[3]; with test item 49 nM,1.4
same,L-glutamate CRC LogEC50,[3]; with test item 49 nM,−6.8
same,L-glutamate CRC Top,[3]; with test item 49 nM,92
same,L-glutamate CRC Bottom,[3]; with test item 195 nM,2.0
same,L-glutamate CRC HillSlope,[3]; with test item 195 nM,1.5
same,L-glutamate CRC LogEC50,[3]; with test item 195 nM,−6.9
same,L-glutamate CRC Top,[3]; with test item 195 nM,85
same,L-glutamate CRC Bottom,[3]; with test item 781 nM,0.92
same,L-glutamate CRC HillSlope,[3]; with test item 781 nM,1.4
same,L-glutamate CRC Top,[3]; with test item 781 nM,76
same,L-glutamate CRC Bottom,[3]; with test item 3.1 μM,1.3
same,L-glutamate CRC HillSlope,[3]; with test item 3.1 μM,1.2
same,L-glutamate CRC LogEC50,[3]; with test item 3.1 μM,−6.5
same,L-glutamate CRC Top,[3]; with test item 3.1 μM,49
same,L-glutamate CRC Bottom,[3]; with test item 12.5 μM,2.5
same,L-glutamate CRC HillSlope,[3]; with test item 12.5 μM,1.1
same,L-glutamate CRC LogEC50,[3]; with test item 12.5 μM,−6.4
same,L-glutamate CRC Top,[3]; with test item 12.5 μM,20
same,L-glutamate CRC Bottom,[3]; with test item 50 μM,7.4
same,L-glutamate CRC HillSlope,[3]; with test item 50 μM,6.1
same,L-glutamate CRC LogEC50,[3]; with test item 50 μM,−6.3
same,L-glutamate CRC Top,[3]; with test item 50 μM,11
same,profile on L-glutamate CRC,[4],insurmountable profile
same,"α, estimated cooperativity term",[5]; [6],0.13
same,L-glutamate CRC Bottom,[5]; with test item 49 nM,5.1
same,L-glutamate CRC HillSlope,[5]; with test item 49 nM,1.4
same,L-glutamate CRC LogEC50,[5]; with test item 49 nM,−7.3
same,L-glutamate CRC Top,[5]; with test item 49 nM,94
same,L-glutamate CRC Bottom,[5]; with test item 195 nM,−0.19
same,L-glutamate CRC HillSlope,[5]; with test item 195 nM,1.3
same,L-glutamate CRC LogEC50,[5]; with test item 195 nM,−7.3
same,L-glutamate CRC Top,[5]; with test item 195 nM,89
same,L-glutamate CRC Bottom,[5]; with test item 781 nM,1.1
same,L-glutamate CRC HillSlope,[5]; with test item 781 nM,1.4
same,L-glutamate CRC LogEC50,[5]; with test item 781 nM,−7.2
same,L-glutamate CRC Top,[5]; with test item 781 nM,87
same,L-glutamate CRC Bottom,[5]; with test item 3.1 μM,−1.3
same,L-glutamate CRC HillSlope,[5]; with test item 3.1 μM,1.3
same,L-glutamate CRC LogEC50,[5]; with test item 3.1 μM,−7.1
same,L-glutamate CRC Top,[5]; with test item 3.1 μM,59
same,L-glutamate CRC Bottom,[5]; with test item 12.5 μM,1.4
same,L-glutamate CRC HillSlope,[5]; with test item 12.5 μM,1.5
same,L-glutamate CRC LogEC50,[5]; with test item 12.5 μM,−6.7
same,L-glutamate CRC Top,[5]; with test item 12.5 μM,26
same,L-glutamate CRC Bottom,[5]; with test item 50 μM,−97133
same,L-glutamate CRC HillSlope,[5]; with test item 50 μM,0.14
same,L-glutamate CRC LogEC50,[5]; with test item 50 μM,−37
same,L-glutamate CRC Top,[5]; with test item 50 μM,19
